Entries after “also recorded” stand apart in the source; their conditions may differ.
Experiments:
[1] = Hardening properties of composite-based temporary cement (Systemp.link); assay type: physicochemical; conditions: 0.3 or 3.0 wt.-%
Description: (§1) 0.3 wt.-% or 3.0 wt.-% of the antimicrobial active ingredient of formula (Ia) was incorporated into the base paste of the commercially available composite-based temporary fixing cement Systemp.link (Ivoclar Vivadent AG). The processing time (PT), setting time (ST) and Shore D hardness were then determined.

[2] = Influence on radical polymerization: chemical hardening of Systemp.link; assay type: physicochemical; conditions: 3.0 wt.-%
Description: 3.0 wt.-% triclosan or 3.0 wt.-% of the antimicrobial active ingredient of formula (Ia) was incorporated into the base paste of the commercially available composite-based temporary fixing cement Systemp.link (Ivoclar Vivadent AG), which hardens radically. The processing time (PT), setting time (ST) and Shore D hardness in the case of chemical hardening were then determined.

[3] = Hardening on exposure to dental polymerization light; assay type: physicochemical; conditions: 20 s exposure to light (Bluephase); 0.2 or 0.5 wt.-% Ia in Fermit
Description: (§2) 0.2 wt.-% or 0.5 wt.-% of the antimicrobial active ingredient of formula (Ia) was incorporated into the commercially available composite-based temporary filling material Fermit (Ivoclar Vivadent AG). […] The Shore D hardness was then determined (see Table 4 for results).

[4] = Through-curing depth of light-curing composite filling material; assay type: physicochemical; conditions: 3.0 or 5.0 wt.-%
Description: A composite filling material with the following composition was prepared:
3.0 wt.-% or 5.0 wt.-% of the antimicrobial active ingredient of formula (Ia) was incorporated into the composite filling material. After 20 s exposure to light with a dental polymerization light (Bluephase®, Ivoclar Vivadent AG), the through-curing depth was determined. For comparison, the antimicrobial active ingredients triclosan and chlorhexidine diacetate were also incorporated into the composite material in a quantity of 3.0 wt.-% or 5.0 wt.-% and the through-curing depth determined (see Table 5 for results).

[5] = Shore D hardness of temporary filling material (Fermit); assay type: physicochemical; conditions: 0.2 or 0.5 wt.-%
Description: as §2

[6] = system: Streptococcus mutans; assay: Agar plate zone of inhibition test; assay type: cell-based, S. mutans DSM20723; conditions: 24 h at 37° C./5% CO2
Description: To determine the antimicrobial action of a temporary dental cement with the active ingredient of formula (Ia), 3.0 wt.-% of the active ingredient of formula (Ia) was incorporated into the commercially available cement Systemp.link (Ivoclar Vivadent AG). Round testpieces with a diameter of 10 mm and a thickness of 2 mm were then shaped into small plates with the corresponding material and then cured. Testpieces made of Systemp.link without active ingredient and also with 1.0 and 3.0 wt.-% triclosan served as reference. After this, the antimicrobial action on the bacterial strain Streptococcus mutans was studied. The agar plate zone of inhibition test was used for this.
Bacterial strain: S. mutans DSM20723 Cultivation medium: BHI broth
100 μl undiluted S. mutans culture solution was plated out onto agar plates. The testpieces were then placed on the agar plates. After 24 h storage at 37° C./5% CO2, the plates were assessed.

[7] = Hardening properties of temporary cement based on polycarboxylate/zinc oxide (Systemp.cem); assay type: physicochemical; conditions: 0.3 or 3.0 wt.-%
Description: as §1, with “initiator” for “base”, “available” for “available composite-based”, “based on polycarboxylate/zinc oxide Systemp.cem” for “Systemp.link”

[8] = 3.0 wt.-% active ingredient in cured Systemp.link small plates

SMILES | Influence on the hardening of Systemp.link [1] | Influence on the chemical hardening of Systemp.link [2] | Hardening after exposure to light [3] | Influence on the through-curing depth of the composite material [4] | Influence on the hardening of Fermit [5] | Formation of zones of inhibition [6, 8] | Influence on the hardening of Systemp.cem [7] | Formation of zones of inhibition ([6]; 1.0 wt.-% active ingredient in cured Systemp.link small plates)
CCCCCCCCNc1cc[n+](CCCCCCCCCC[n+]2ccc(NCCCCCCCC)cc2)cc1 [Ia] | does not have a significant negative influence | does not have a significant negative influence | hardened completely | does not have a significant negative influence | does not have a significant negative influence | clear zones of inhibition | does not have a significant negative influence | –
Oc1cc(Cl)ccc1Oc1ccc(Cl)cc1Cl [triclosan, 2,4,4′-trichloro-2′-hydroxydiphenylether] | – | completely inhibited | – | dramatically reduced | – | does not bring about a formation of zones of inhibition; also recorded: zones of inhibition do not form | – | does not bring about a formation of zones of inhibition; also recorded: zones of inhibition do not form
CC(=O)O.CC(=O)O.NC(=N\CCCCCC/N=C(N)/N=C(\N)Nc1ccc(Cl)cc1)/N=C(\N)Nc1ccc(Cl)cc1 [chlorhexidine diacetate] | – | – | – | dramatically reduced | – | – | – | –
